Measured values reported in patent US20180246095A1, “COMPOSITIONS AND METHODS FOR DIAGNOSING AND TREATING LYME DISEASE” (priority 2015, published 2018).

Test system: B. burgdorferi B31
Assay: RNA-Seq gene expression profile of B. burgdorferi persisters that survived antibiotic treatment, compared with drug free control
Format: cell-based, Borrelia burgdorferi
Protocol: RNA Sequencing (RNA-Seq) was performed to determine the gene expression profile of B. burgdorferi persisters that survived antibiotic treatment using next generation sequencing to shed light on the mechanisms of B. burgdorferi persistence. B. burgdorferi B31 cultures were grown for 5 days to 1×10^7 spirochetes/ml in BSK-H medium followed by treatment with 50 μg/ml doxycycline or 50 μg/ml amoxicillin for 6 days. Triplicate biological samples were used for each group. The total RNA was extracted and ribosomal RNA was removed prior to preparation of cDNA libraries for Illumina sequencing. […] The RNA-Seq data was analyzed by BLAST analysis and mapped to KEGG pathways.

SMILES: CC1(C)S[C@@H]2[C@H](NC(=O)[C@H](N)c3ccc(O)cc3)C(=O)N2[C@H]1C(=O)O [Amo]
- Expression BB_U05 (gene BB_U05, PF-32 protein): 0
- Expression BB_U06 (gene BB_U06, plasmid partition protein): 0
- Expression BB_U07 (gene BB_U07, protein BBC01): 0
- Expression BB_U08 (gene BB_U08, SUA5 subfamily protein): 0
- Expression BB_U09 (gene BB_U09, TM2 family protein): 0
- Expression BB_U10 (gene BB_U10, protein BBC01): 0
- Expression BB_U11 (gene BB_U11, Sua5/YciO/YrdC/YwlC family protein): 0
- Expression BB_t19 (gene BB_t19, Ser tRNA): 7
- Expression BB_t26 (gene BB_t26, Arg tRNA): 0
- Expression BB_t27 (gene BB_t27, Leu tRNA): 2
- Expression BB_L35 (gene bdrO BB_L35, protein BdrO): 0
- Expression BB_N34 (gene bdrQ BB_N34, BdrQ): 1
- Expression BB_Q34 (gene bdrW BB_Q34, protein BdrW protein): 1
- Expression BB_L23 (gene blyA BB_L23, holin protein): 0
- Expression BB_L24 (gene blyB BB_L24, holin protein): 0
- Expression BB_L36 (gene bppA BB_L36, protein BppA): 0
- Expression BB_L37 (gene bppB BB_L37, protein BppB): 1
- Expression BB_Q47 (gene erpX BB_Q47, protein ErpX): 0
- Expression BB_L28 (gene mlpH BB_L28, lipoprotein): 1
- Expression BB_t16 (gene tRNA-Arg-3 BB_t16, Arg tRNA): 3
- Expression BB_t08 (gene tRNA-His-1 BB_t08, His tRNA): 0
- Expression BB_t07 (gene tRNA-Lys-2 BB_t07, Lys tRNA): 0
- Expression BB_t14 (gene tRNA-Thr-2 BB_t14, Thr tRNA): 0
- Expression BB_t03 (gene tRNA-Trp-1 BB_t03, Trp tRNA): 1
- Expression BB_I16 (gene vraA BB_I16, repetitive antigen A): 0
- Expression BB_0368 (glycerol-3-phosphate dehydrogenase): 95
- Expression BB_0185 (glycoprotease family protein): 50
- Expression blyB BB_R24 (hemolysin accessory protein): 0
- Expression blyA BB_M23 (holin protein): 0
- Expression blyA BB_N23 (holin protein): 50
- Expression blyA BB_P23 (holin protein): 64
- Expression blyA BB_S23 (holin protein): 0
- Expression blyB BB_N24 (holin protein): 0
- Expression blyB BB_S24 (holin protein): 0
- Expression BB_0024 (hypothetical protein): 390
- Expression BB_0029 (hypothetical protein): 114
- Expression BB_0044 (hypothetical protein): 0
- Expression BB_0102 (hypothetical protein): 53
- Expression BB_0162 (hypothetical protein): 401
- Expression BB_0238 (hypothetical protein): 26
- Expression BB_0242 (hypothetical protein): 2
- Expression BB_0252 (hypothetical protein): 497
- Expression BB_0308 (hypothetical protein): 0
- Expression BB_0322 (hypothetical protein): 1
- Expression BB_0331 (hypothetical protein): 5
- Expression BB_0336 (hypothetical protein): 61
- Expression BB_0352 (hypothetical protein): 66
- Expression BB_0367 (hypothetical protein): 176
- Expression BB_0373 (hypothetical protein): 4
- Expression BB_0378 (hypothetical protein): 129
- Expression BB_0428 (hypothetical protein): 627
- Expression BB_0525 (hypothetical protein): 73
- Expression BB_0549 (hypothetical protein): 0
- Expression BB_0576 (hypothetical protein): 140
- Expression BB_0646 (hypothetical protein): 444
- Expression BB_0663 (hypothetical protein): 533
- Expression BB_0673 (hypothetical protein): 15
- Expression BB_0707 (hypothetical protein): 35
- Expression BB_0739 (hypothetical protein): 51
- Expression BB_0799 (hypothetical protein): 2
- Expression BB_0824 (hypothetical protein): 98
- Expression BB_0838a (hypothetical protein): 4
- Expression BB_A09 (hypothetical protein): 50
- Expression BB_A13 (hypothetical protein): 256
- Expression BB_A61 (hypothetical protein): 133
- Expression BB_D22 (hypothetical protein): 5
- Expression BB_D24 (hypothetical protein): 0
- Expression BB_D0027 (hypothetical protein): 0
- Expression BB_G33 (hypothetical protein): 13
- Expression BB_G34 (hypothetical protein): 439
- Expression BB_H05 (hypothetical protein): 23
- Expression BB_H27 (hypothetical protein): 4
- Expression BB_J13 (hypothetical protein): 5
- Expression BB_J19 (hypothetical protein): 3
- Expression BB_J24 (hypothetical protein): 0
- Expression BB_J46 (hypothetical protein): 17
- Expression BB_J47 (hypothetical protein): 69
- Expression BB_J0056 (hypothetical protein): 13
- Expression BB_L19 (hypothetical protein): 24
- Expression BB_L20 (hypothetical protein): 22
- Expression BB_L25 (hypothetical protein): 13
- Expression BB_L26 (hypothetical protein): 1
- Expression BB_L41 (hypothetical protein): 0
- Expression BB_M12 (hypothetical protein): 0
- Expression BB_M13 (hypothetical protein): 0
- Expression BB_M14 (hypothetical protein): 0
- Expression BB_M15 (hypothetical protein): 0
- Expression BB_M17 (hypothetical protein): 0
- Expression BB_M25 (hypothetical protein): 0
- Expression BB_M30 (hypothetical protein): 0
- Expression BB_M39 (hypothetical protein): 0
- Expression BB_M41 (hypothetical protein): 0
- Expression BB_N20 (hypothetical protein): 68
- Expression BB_N30 (hypothetical protein): 1
- Expression BB_N41 (hypothetical protein): 47
- Expression BB_O02 (hypothetical protein): 0
- Expression BB_O03 (hypothetical protein): 0
- Expression BB_O04 (hypothetical protein): 0
- Expression BB_O05 (hypothetical protein): 0
- Expression BB_O06 (hypothetical protein): 0
- Expression BB_O08 (hypothetical protein): 0
- Expression BB_O09 (hypothetical protein): 0
- Expression BB_O10 (hypothetical protein): 0
- Expression BB_O13 (hypothetical protein): 0
- Expression BB_O29 (hypothetical protein): 46
- Expression BB_O31 (hypothetical protein): 0
- Expression BB_P20 (hypothetical protein): 288
- Expression BB_P21 (hypothetical protein): 291
- Expression BB_P30 (hypothetical protein): 5
- Expression BB_Q27 (hypothetical protein): 36
- Expression BB_Q28 (hypothetical protein): 22
- Expression BB_Q32 (hypothetical protein): 14
- Expression BB_Q33 (hypothetical protein): 147
- Expression BB_Q38 (hypothetical protein): 0
- Expression BB_Q39 (hypothetical protein): 0
- Expression BB_Q54 (hypothetical protein): 1
- Expression BB_Q62 (hypothetical protein): 1
- Expression BB_Q0091 (hypothetical protein): 6
- Expression BB_R20 (hypothetical protein): 73
- Expression BB_R25 (hypothetical protein): 43
- Expression BB_R26 (hypothetical protein): 393
- Expression BB_R29 (hypothetical protein): 252
- Expression BB_R31 (hypothetical protein): 0
- Expression BB_R43 (hypothetical protein): 111
- Expression BB_S06 (hypothetical protein): 0
- Expression BB_S08 (hypothetical protein): 0
- Expression BB_S11 (hypothetical protein): 0
- Expression BB_S12 (hypothetical protein): 0
- Expression BB_S13 (hypothetical protein): 0
- Expression BB_S14 (hypothetical protein): 0
- Expression BB_S18 (hypothetical protein): 0
- Expression BB_S19 (hypothetical protein): 0
- Expression BB_S20 (hypothetical protein): 0
- Expression BB_S21 (hypothetical protein): 11
- Expression BB_S25 (hypothetical protein): 120
- Expression BB_S33 (hypothetical protein): 29
- Expression BB_0316 (integral membrane protein): 36
- Expression BB_0580 (integral membrane protein): 210
- Expression BB_0193 (lipoprotein): 15
- Expression BB_0628 (lipoprotein): 158
- Expression BB_0664 (lipoprotein): 142
- Expression BB_0832 (lipoprotein): 753
- Expression BB_B27 (lipoprotein): 42
- Expression BB_D10 (lipoprotein): 51
- Expression BB_J36 (lipoprotein): 90
- Expression mlpF BB_M28 (lipoprotein): 0
- Expression la7 BB_0365 (lipoprotein LA7): 112
- Expression BB_0593 (long-chain-fatty-acid CoA ligase): 24
- Expression BB_0353 (membrane protein): 31
- Expression BB_0759 (membrane protein): 1041
- Expression BB_0143 (membrane protein insertion efficiency factor): 1085
- Expression BB_0034 (outer membrane protein P13): 41
- Expression BB_M01 (phage portal protein): 0
- Expression pstC BB_0216 (phosphate ABC transporter permease PstC): 128
- Expression BB_0727 (phosphofructokinase): 48
- Expression BB_H29 (plasmid partition protein): 0
- Expression proS BB_0402 (proline--tRNA ligase): 87
- Expression bdrF BB_S29 (protein BdrF): 15
- Expression bdrV BB_Q42 (protein BdrV): 1
- Expression erpM BB_O40 (protein ErpM): 0
- Expression BB_H13 (protein RepU): 3
- Expression BB_A69 (putative surface protein): 98
- Expression ksgA BB_0590 (rRNA small subunit methyltransferase A): 177
- Expression dnaB BB_0111 (replicative DNA helicase): 144
- Expression BB_0419 (response regulator): 34
- Expression lepB BB_0263 (signal peptidase I): 98
- Expression BB_0453 (small conductance mechanosensitive ion channel): 467
- Expression BB_0641 (spermidine/putrescine transport system permease): 70
- Expression BB_0153 (superoxide dismutase): 202
- Expression BB_I39 (surface antigen): 8
- Expression BB_0225 (tRNA-dihydrouridine synthase A): 194
- Expression rho BB_0230 (transcription termination factor Rho): 22
- Expression BB_0025 (transcriptional regulator): 272
- Expression infA BB_0169 (translation initiation factor IF-1): 522
- Expression ung BB_0053 (uracil-DNA glycosylase): 1626
- Expression udk BB_0015 (uridine kinase): 37
- Expression BB_0831 (xylose operon regulatory protein): 122
